Tested on: human alpha-synuclein
Test: Alpha-synuclein levels via ELISA in alpha-synuclein-transfected SHSY5Y cells
Format: cell-based
Conditions: 5 hours, concentration between 1 and 0.1 nM
Protocol: Cell lines, transfection, and treatment.
Alpha-Synuclein Enzyme-Linked Immunosorbent Assay (ELISA). ELISAs for total human alpha-synuclein (Millipore; Burlington, MA) were conducted using Milliplexed ELISA. Briefly, Xmap technology uses magnetic microspheres that are internally coded with two fluorescent dyes. Through precise combinations of these two dyes, multiple proteins are simultaneously measured within a sample. Each of these spheres is coated with a specific capture antibody. The capture antibody binds to the detection antibody and a reporter molecule, completing the reaction on the surface of the bead.
A total of 25 μL soluble protein was incubated overnight at 4° C. with 25 μL of a mixed bead solution. After washing, samples were incubated with 25 μL detection antibody solution for 1.5 hours at room temperature. Streptavidin-phycoerythrin (25 μL) was added to each well containing the 25 μL of detection antibody solution. Samples were then washed and suspended in 100 μL of sheath fluid. Samples were then run on MAGPIX with Xponent software. The median fluorescent intensity (MFI) data were analyzed using a 5-parameter logistic or spline curve-fitting method for calculating analyte concentrations in samples. Specific alpha-synuclein ELISAs were performed on tissue soluble extracts from midbrain lysates in 1XSTEN buffer. The ELISA for USP13 (MyBioSource, Cat # MBS9335287), Human alpha-synuclein (Biolegend, Cat #844101) and specific p-Tau ser396 (Invitrogen, KHB7031) were performed on cell or brain tissue extracts as described above according to manufacturers' protocol.

Fc1ccc2nccc(OCc3ccccc3)c2c1 [4-(Benzyloxy)-6-fluoroquinoline]
level of alpha-synuclein via ELISA: significantly reduce the level of alpha-synuclein

— patent US20240092800A1, “USP13 INHIBITORS AND METHODS OF USE THEREOF” (GEORGETOWN UNIVERSITY, priority 2021, published 2024)
